Consider one compound from ChEMBL document CHEMBL1150599, “Spiroidesin, a novel lipopeptide from the cyanobacterium Anabaena spiroides that inhibits cell growth of the cyanobacterium Microcystis aeruginosa” (J Nat Prod, 2002).

One may read the IC50 as the midpoint of a concentration-inhibition curve. A low value points to inhibition by little substance.

A short description of assay [1]: Inhibition of alpha-chymotrypsin.
For a further assay, the system named is Microcystis aeruginosa. In words: Growth inhibition of Microcystis aeruginosa NIES-88 after 5 days. It counts as functional, organism-based. The note with it: NIES-88, 120 h.

The structures appear in SMILES notation.

Turning to `CCCCCC(=O)N[C@H](CCc1ccc(O)cc1)C(=O)N[C@@H](CCc1ccc(O)cc1)C(=O)N[C@H](Cc1ccccc1)C(=O)O` [SPIROIDESIN], the IC50 in assay [1] turned out to be 10 µM; in the assay with Microcystis aeruginosa, 1.6 µM.
